Experimental data as given in patent US12264159B2, “Functionalized heterocycles as antiviral agents” (Enanta Pharmaceuticals, Inc., priority 2018, dated 2025).

Columns and labels:
[1] = Compound induced cellular toxicity in HepG2 cells, ATPlite 1Step; assay type: cell-based; conditions: human, three days exposure, 50% reduction of total ATP vs no drug controls
Protocol: At day 3, post seeding cells are treated with ATPlite 1Step according to the manufacturer's instructions.

HBV in 2.2.15 cells = test: 2.2.15 cells: viral product in cell lysates quantified via quantitative real time PCR; assay type: cell-based, hepatitis B virus (HBV); conditions: Hepatitis B virus, 120 h, day 5 post treatment, 50% reduction of viral product vs no drug controls, readout (qPCR, HBsAg or HBeAg) not specified for the column
Method in brief: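 HBV product was measured at day 5 by lysate qPCR or by supernatant HBsAg/HBeAg ELISA, in 2.2.15 cells seeded at 35,000/well and exposed to 5-fold compound dilution series (0.5% DMSO). EC50 is 50% reduction of viral product relative to untreated controls.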

Question: With `COc1ncc(-c2cc3n(n2)C[C@@H](C(C)(C)C)n2cc(C(=O)O)c(=O)cc2-3)cn1` [Example 6, (R)-6-(tert-butyl)-2-(2-methoxypyrimidin-5-yl)-10-oxo-5,6-dihydro-10H-pyrazolo[1,5-a]pyrido[2,2-c]pyrazine-12-carboxylic acid] as the compound, how does the CC50 at 3 days [1] read?
Answer: > 25 µM

Question: And the EC50 (HBV in 2.2.15 cells)?
Answer: < 0.1 µM

Question: With `Cn1cc(-c2cc3n(n2)C[C@@H](C(C)(C)C)n2cc(C(=O)O)c(=O)cc2-3)cn1` [Example 5, (R)-6-(tert-butyl)-2-(2-methyl-1H-pyrazol-4-yl)-10-oxo-5,6-dihydro-10H-pyrazolo[1,5-a]pyrido[2,2-c]pyrazine-12-carboxylic acid] as the compound, how does the CC50 at 3 days [1] read?
Answer: > 25 µM

Question: And the EC50 (HBV in 2.2.15 cells)?
Answer: < 0.1 µM

Question: With `Cc1cccc(-c2c(C3CC3)nn3c2-c2cc(=O)c(C(=O)O)cn2[C@H](C(C)(C)C)C3)c1` [Example 153, (R)-6-(tert-butyl)-2-cyclopropyl-10-oxo-1-(m-tolyl)-5,6-dihydro-10H-pyrazolo[1,5-a]pyrido[2,1-c]pyrazine-9-carboxylic acid] as the compound, how does the CC50 at 3 days [1] read?
Answer: 10 to 25 µM

Question: And the EC50 (HBV in 2.2.15 cells)?
Answer: < 0.1 µM

Question: What does the source list for `COc1cccc(-c2cc3n(n2)C[C@@H](C(C)(C)C)n2cc(C(=O)O)c(=O)cc2-3)c1C#N` [Example 45, (R)-6-(tert-butyl)-2-(2-cyano-3-methoxyphenyl)-10-oxo-5,6-dihydro-10H-pyrazolo[1,5-a]pyrido[2,2-c]pyrazine-12-carboxylic acid]?
Answer: CC50 at 3 days [1]: > 25 µM; EC50 (HBV in 2.2.15 cells): < 0.1 µM
